Counter-ions that a name gives are not always drawn.
Test system: HCT116
Details: 72 h
How it was run: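 After seeding at 250 cells per well in 1536-well plates, HCT116 cells were given 5 h to attach. CellTiter-Glo luminescence, scaled to 0% for vehicle and -100% for positive control, was pattern-corrected. Fitting with a four-parameter Hill model produced IC50 and maximal efficacy.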

IC50 cell viability (ICRF193 0 nM) [µM]	IC50 cell viability (ICRF193 200 nM) [µM]	SMILES
> 45.8	> 45.8	CC(=C(CCO)SSCC1CCCO1)N(C=O)Cc1cnc(C)nc1N (stereo in doubt) [Fursultiamine Hydrochloride]
> 45.8	> 45.8	Cc1nnc(C(C)C)n1C1C[C@H]2CC[C@@H](C1)N2CC[C@H](NC(=O)C1CCC(F)(F)CC1)c1ccccc1 (stereo in doubt) [Maraviroc]
> 45.8	> 45.8	O=Cc1ccccc1C=O [1,2-Benzenedicarboxaldehyde]
> 45.8	> 45.8	Oc1cc(O)cc(O)c1 [1,3,5-Trihydroxybenzene dihydrate]
> 45.8	> 45.8	COc1cc(OC)cc(OC)c1 [1,3,5-Trimethoxybenzene]
> 45.8	> 45.8	O=C(O)c1ccc(OCCCOc2ccc(C(=O)O)cc2)cc1 [1,3-Bis(4-carboxyphenoxy)propane]
> 45.8	> 45.8	O=S(=O)(O)CCCS(=O)(=O)O [1,3-Propanedisulfonic acid disodium salt]
> 45.8	> 45.8	CC12CCC(CC1)C(C)(C)O2 [1,8-Cineol]
> 45.8	> 45.8	FC(F)(F)C(F)(F)C(F)(F)C(F)(F)C(F)(F)C(F)(F)C(F)(F)C(F)(F)Br [1-Bromoheptadecafluorooctane]
> 45.8	> 45.8	CCN1CCCC1=O [1-Ethyl-2-pyrrolidinone]
> 45.8	> 45.8	CCCCCCCCCCCCCCCCO [1-Hexadecanol]
> 45.8	> 45.8	O=C(O)Cc1cccc2ccccc12 [1-Naphthaleneacetic acid]
> 45.8	> 45.8	CCCCCCCCCCCCCCCCCCCCCCCCCCCCO [1-Octacosanol]
> 45.8	> 45.8	CCCCCCCCCCCCCCCCCCO [1-Octadecanol]
> 45.8	> 45.8	CC(O)COc1ccccc1 (centres undefined) [1-Phenoxy-2-propanol]
> 45.8	> 45.8	CCC(O)c1ccccc1 (centres undefined) [1-Phenyl-1-propanol]
> 45.8	> 45.8	Nc1ccn([C@H]2CC[C@@H](CO)O2)c(=O)n1 [2',3'-Dideoxycytidine]
> 45.8	> 45.8	O=c1[nH]cnc2c1ncn2[C@H]1CC[C@@H](CO)O1 [2',3'-Dideoxyinosine]
> 45.8	> 45.8	COc1ccc(C(=O)c2ccccc2O)c(O)c1 [2,2'-Dihydroxy-4-methoxybenzophenone]
> 45.8	> 45.8	c1ccc2sc(SSc3nc4ccccc4s3)nc2c1 [2,2'-Dithiobisbenzothiazole]

IC50 cell viability (ICRF193 0 nM) [µM]	IC50 cell viability (ICRF193 200 nM) [µM]	SMILES
> 45.8	> 45.8	CCCCCCCC(=O)OCC(O)CO (centres undefined) [2,3-Dihydroxypropyl octanoate]
> 45.8	> 45.8	OCc1ccc(Cl)cc1Cl [2,4-Dichlorobenzyl alcohol]
> 45.8	> 45.8	CCCCCCCCCCCCOCCO [2-(Dodecyloxy)ethanol]
> 45.8	> 45.8	NC(=O)c1ccc([N+](=O)[O-])cc1Cl [2-Chloro-4-nitrobenzamide]
> 45.8	> 45.8	CCOc1ccccc1C(N)=O [2-Ethoxybenzamide]
> 45.8	> 45.8	CCCC(O)C(CC)CO (centres undefined) [2-Ethyl-1,3-hexanediol]
> 45.8	> 45.8	CCCCC(CC)COC(=O)c1ccc(N(C)C)cc1 (centres undefined) [2-Ethylhexyl 4-(dimethylamino)benzoate]
> 45.8	> 45.8	CCCCC(CC)COC(=O)c1ccccc1O (centres undefined) [2-Ethylhexyl salicylate]
> 45.8	> 45.8	COc1ccc(C(=O)c2ccccc2)c(O)c1 [2-Hydroxy-4-methoxybenzophenone]
> 45.8	> 45.8	O=C(Nc1ccc(O)cc1)c1ccccc1O [2-Hydroxy-N-(4-hydroxyphenyl)-benzamide]
> 45.8	> 45.8	CCCCCCCCCCCCCCCCCC(=O)OCCO [2-Hydroxyethyl octadecanoate]
> 45.8	> 45.8	O=C(O)CNC(=O)c1ccccc1I [2-Iodohippuric acid]
> 45.8	> 45.8	Sc1nc2ccccc2s1 [2-Mercaptobenzothiazole]
> 45.8	> 45.8	CCCCCCCCCCC(CO)CCCCCCCC (centres undefined) [2-Octyl-1-dodecanol]
> 45.8	> 45.8	OCCc1ccccc1 [2-Phenylethanol]
> 45.8	> 45.8	O=C1CC[C@@H](C(=O)O)N1 [2-Pyrrolidone-5-carboxylic acid]
> 45.8	> 45.8	O=C(O)c1ccccc1S [2-Thiosalicylic acid]
> 45.8	> 45.8	Cc1cc(Nc2ccccc2C(=O)O)ccc1Cl [2-[(4-Chloro-3-methylphenyl)amino]benzoic acid]
> 45.8	> 45.8	Cc1cn([C@H]2C[C@H](N=[N+]=[N-])[C@@H](CO)O2)c(=O)[nH]c1=O [3'-Azido-3'-deoxythymidine]
> 45.8	> 45.8	CC1CC(OC(=O)c2ccccc2O)CC(C)(C)C1 (centres undefined) [3,3,5-Trimethylcyclohexyl salicylate]

IC50 cell viability (ICRF193 0 nM) [µM]	IC50 cell viability (ICRF193 200 nM) [µM]	SMILES
> 45.8	> 45.8	CCCCCCCCCCCCCCCCCCOCC(O)CO (centres undefined) [3-(Octadecyloxy)-1,2-propanediol]
> 45.8	> 45.8	OCCCNc1ccccc1 [3-Anilinopropan-1-ol]
> 45.8	> 45.8	CCOc1ccc(NC(=O)CC(C)O)cc1 (centres undefined) [3-Hydroxy-4-butyrophenetidide]
> 45.8	> 45.8	Cc1c[nH]c2ccccc12 [3-Methylindole]
> 45.8	> 45.8	CC(=O)Nc1ccc(C(=O)O)cc1 [4-Acetamidobenzoic acid]
> 45.8	> 45.8	CC(=O)Nc1ccc(CC(=O)O)cc1 [4-Acetylaminophenylacetic acid]
> 45.8	> 45.8	Nc1ccc(C(=O)O)cc1 [4-Aminobenzoic acid]
> 45.8	> 45.8	Cc1cc(O)cc(C)c1Cl [4-Chloro-3,5-dimethylphenol]
> 45.8	> 45.8	Cc1c(N(C)C)c(=O)n(-c2ccccc2)n1C [4-Dimethylaminoantipyrine]
> 45.8	> 45.8	CCCCCCc1ccc(O)cc1O [4-Hexylresorcinol]
> 45.8	> 45.8	COc1ccc(/C=C/C(=O)O)cc1 [4-Methoxycinnamic acid]
> 45.8	> 45.8	COc1ccc(O)cc1 [4-Methoxyphenol]
> 45.8	> 45.8	Cc1cc(=O)oc2cc(O)ccc12 [4-Methylumbelliferone]
> 45.8	> 45.8	O=S(=O)(O)c1ccc(O)cc1 [4-Phenolsulfonic acid]
> 45.8	> 45.8	CCCc1ccc(C(=O)O)cc1 [4-Propylbenzoic acid]
> 45.8	> 45.8	C(=C\c1ccncc1)/c1ccccc1 [4-Styrylpyridine]
> 45.8	> 45.8	O=C1NC(=O)C(c2ccccc2)(c2ccccc2)N1 [5,5-Diphenylhydantoin]
> 45.8	> 45.8	Cc1ccc2c(Cl)cc(Cl)c(O)c2n1 [5,7-Dichloro-8-hydroxy-2-methylquinoline]
> 45.8	> 45.8	Nc1ccc(O)c(C(=O)O)c1 [5-Aminosalicylic acid]

SMILES	IC50 cell viability (ICRF193 0 nM) [µM]	IC50 cell viability (ICRF193 200 nM) [µM]
CC(C)(O)C(Cl)(Cl)Cl [1,1,1-Trichloro-2-methyl-2-propanol]	> 45.8	> 45.8
NC(=Nc1ccccc1)Nc1ccccc1 [1,3-Diphenylguanidine]	> 45.8	> 45.8
O=[N+]([O-])c1cc(I)c(O)c(I)c1 [2,6-DIIODO-4-NITROPHENOL]	> 45.8	> 45.8
O=[N+]([O-])C(Br)(CO)CO [2-Bromo-2-nitro-1,3-propanediol]	> 45.8	> 45.8
OCCOc1ccccc1 [2-Phenoxyethanol]	> 45.8	> 45.8
CC(C)CCON=O [3-Methylbutyl nitrite]	> 45.8	> 45.8
CC(C)(C)CC(C)(C)c1ccc(O)cc1 [4-(1,1,3,3-Tetramethylbutyl)phenol]	> 45.8	> 45.8
Nc1ccncc1 [4-Aminopyridine]	> 45.8	> 45.8
C[C@]12CCC(=O)C=C1CC[C@@H]1[C@@H]2CC[C@]2(C)C(=O)CC[C@@H]12 [4-Androstene-3,17-dione]	> 45.8	> 45.8
Cc1cc(O)ccc1Cl [4-Chloro-3-methylphenol]	> 45.8	> 45.8
Oc1ccc(Cl)cc1 [4-Chlorophenol]	> 45.8	> 45.8
O=[N+]([O-])c1cc([As](=O)(O)O)ccc1O [4-Hydroxy-3-nitrophenylarsonic acid]	> 45.8	> 45.8
Cn1sc(Cl)cc1=O [5-Chloro-2-methyl-3(2H)-isothiazolone]	> 45.8	> 45.8

From the supplement of paper PMC12137928
